Experiments:
[1] = test system: normal NK cells expanded with K562-aAPC; experiment: percent inhibition of viability; higher = more inhibition; conditions: 72 h, IL-2 2.5 ng/mL
Protocol: (§1)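 Drug sensitivity and resistance testing on K562-aAPC-expanded normal NK cells: 5 concentrations (10-fold steps over a 10,000-fold range), 72 h at 37 °C, viability by CellTiter-Glo normalised to DMSO and benzethonium chloride controls; DSS from the fitted curve.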

[2] = test system: DERL-7 (IL-2 2.5 ng/mL); experiment: as above; conditions: 72 h
[3] = test system: IMC-1 (IL-2 20 ng/mL); experiment: as above; conditions: 72 h
[4] = test system: KAI3 (IL-2 2.5 ng/mL); experiment: as above; conditions: 72 h
[5] = test system: KHYG-1 (IL-2 2.5 ng/mL); experiment: as above; conditions: 72 h
[6] = test system: NK-92 (IL-2 2.5 ng/mL); experiment: as above; conditions: 72 h
[7] = test system: NK-YS (IL-2 2.5 ng/mL); experiment: as above; conditions: 72 h
[8] = test system: NKL (IL-2 2.5 ng/mL); experiment: as above; conditions: 72 h
[9] = test system: SNK-6 (IL-2 2.5 ng/mL); experiment: as above; conditions: 72 h
[10] = test system: YT (IL-2 2.5 ng/mL); experiment: as above; conditions: 72 h
[11] = test system: normal primary NK cells, pool 1 (3 donors) (IL-2 2.5 ng/mL); experiment: as above; conditions: 72 h
[12] = test system: normal primary NK cells, pool 1 (3 donors), resting (IL-2 0 ng/mL); experiment: as above; conditions: 72 h
[13] = test system: normal primary NK cells, pool 2 (3 donors) (IL-2 2.5 ng/mL); experiment: as above; conditions: 72 h
[14] = test system: normal primary NK cells, pool 3 (3 donors) (IL-2 2.5 ng/mL); experiment: as above; conditions: 72 h
[15] = test system: normal NK cells expanded with K562-aAPC; experiment: drug sensitivity score (DSS) (DSS units); higher = more sensitive; extreme values may be limits of the assay; conditions: 72 h; IL-2 2.5 ng/mL
Protocol: as §1

[16] = test system: DERL-7 (IL-2 2.5 ng/mL); experiment: as above; conditions: 72 h
[17] = test system: IMC-1 (IL-2 20 ng/mL); experiment: as above; conditions: 72 h
[18] = test system: KAI3 (IL-2 2.5 ng/mL); experiment: as above; conditions: 72 h
[19] = test system: KHYG-1 (IL-2 2.5 ng/mL); experiment: as above; conditions: 72 h
[20] = test system: NK-92 (IL-2 2.5 ng/mL); experiment: as above; conditions: 72 h
[21] = test system: NK-YS (IL-2 2.5 ng/mL); experiment: as above; conditions: 72 h
[22] = test system: NKL (IL-2 2.5 ng/mL); experiment: as above; conditions: 72 h
[23] = test system: SNK-6 (IL-2 2.5 ng/mL); experiment: as above; conditions: 72 h
[24] = test system: YT (IL-2 2.5 ng/mL); experiment: as above; conditions: 72 h
[25] = test system: normal primary NK cells, pool 1 (3 donors) (IL-2 2.5 ng/mL); experiment: as above; conditions: 72 h
[26] = test system: normal primary NK cells, pool 1 (3 donors), resting (IL-2 0 ng/mL); experiment: as above; conditions: 72 h
[27] = test system: normal primary NK cells, pool 2 (3 donors) (IL-2 2.5 ng/mL); experiment: as above; conditions: 72 h
[28] = test system: normal primary NK cells, pool 3 (3 donors) (IL-2 2.5 ng/mL); experiment: as above; conditions: 72 h

Nc1ncn([C@@H]2O[C@H](CO)[C@@H](O)[C@H]2O)c(=O)n1 [Azacitidine] (max concentration tested 10000 nM)
percent inhibition of viability [%]
Conditions | 1 nM | 10 nM | 100 nM | 1000 nM | 10000 nM
[1] | -4.42 | -10.9 | -6.84 | 4.72 | 60.3
[2] | 2.03 | 3.15 | 2.51 | 24.5 | 85.6
[3] | -6.44 | -3.39 | 2.53 | -7.92 | 82.7
[4] | -2.09 | -1.87 | 2.62 | 26.2 | 60.5
[5] | -4.59 | -3.23 | 2.46 | 23.2 | 89.6
[6] | -4.17 | -12.4 | -0.66 | 23.1 | 83.7
[7] | -2.67 | -1.33 | 3.5 | 15.9 | 67.6
[8] | -16.7 | -17.1 | -14.1 | -11.2 | 65.5
[9] | -3.1 | 1 | 15.7 | 47.1 | 67.8
[10] | -1.86 | -3.15 | -1.98 | -0.51 | 28
[11] | -2.2 | -10.3 | 1.35 | 9.04 | 30.6
[12] | -3.24 | -12.3 | 5.31 | 4.81 | 27.4
[13] | -6.68 | -8.85 | -5.14 | -3.32 | 29.2
[14] | -6.45 | -3.68 | -2.24 | -3.82 | 25.5

Conditions | drug sensitivity score
[15] | 4
[16] | 8.4
[17] | 4.03
[18] | 6.42
[19] | 8.51
[20] | 8.11
[21] | 6.22
[22] | 2.92
[23] | 10.7
[24] | 1.12
[25] | 2.65
[26] | 1.88
[27] | 1.04
[28] | 0.77

Nc1nc(N)c2nc(-c3cccc(O)c3)c(-c3cccc(O)c3)nc2n1 [TG100-115] (max concentration tested 10000 nM)
percent inhibition of viability [%]
Conditions | 1 nM | 10 nM | 100 nM | 1000 nM | 10000 nM
[1] | -2.77 | -3.08 | 0.07 | 6.14 | 26.9
[2] | -6.88 | -4.08 | 5.03 | -4.31 | 3.35
[3] | -0.94 | 5.84 | 4.32 | 14.9 | 34.2
[4] | -5.91 | 4.12 | -4.09 | -1.44 | 13.4
[5] | 0.48 | 4.75 | 4.43 | 9.36 | 24.5
[6] | -2.65 | 1.92 | 7.95 | 3.09 | 17.8
[7] | -1.11 | -1.59 | 0.64 | 4.73 | 8.38
[8] | -7.69 | -0.08 | 0.45 | 6.08 | 27.7
[9] | 0.36 | 13.3 | 17.1 | 53.8 | 39
[10] | 1.25 | 2.49 | 4.53 | 4.76 | 12.3
[11] | 6.61 | -12.2 | -0.36 | -3.46 | 18.8
[12] | 0.41 | -21.8 | -6.01 | -19 | 16.1
[13] | -11.3 | -4.42 | 12.3 | 5.35 | 21.7
[14] | -6.73 | -4.4 | 7.77 | -1.79 | 13.7

Conditions | drug sensitivity score
[15] | 2.01
[16] | 0
[17] | 2.97
[18] | 0
[19] | 1.47
[20] | 0.35
[21] | 0
[22] | 2.07
[23] | 10.8
[24] | 0
[25] | 0.36
[26] | 0.1
[27] | 1.02
[28] | 0.09

COc1cc2/c(=N/c3ccc(Br)cc3F)nc[nH]c2cc1OCC1CCN(C)CC1 [Vandetanib] (max concentration tested 1000 nM)
percent inhibition of viability [%]
Conditions | 0.1 nM | 1 nM | 10 nM | 100 nM | 1000 nM
[1] | -8.6 | 1.05 | -3.45 | 6.91 | 29.5
[2] | -0.64 | -4.35 | -15.9 | -3.72 | 3.05
[3] | -1 | -1.11 | 2.06 | 4.13 | 13.1
[4] | 0.12 | -3.68 | -0.86 | -6.05 | 18.6
[5] | -1.45 | 0.56 | 5.16 | 2.56 | 12.2
[6] | -4.34 | -9.89 | -2.18 | -8.76 | 7.58
[7] | -3.92 | -3.47 | 0.22 | 0.66 | 11.3
[8] | -13.3 | -15.3 | -10 | 2.48 | 9
[9] | 12.7 | 14.6 | 14.3 | 33.2 | 24.4
[10] | 2.5 | 1.99 | 6.02 | -0.29 | 12.9
[11] | -5.01 | -0.24 | -7.43 | -15.2 | 2.01
[12] | 7.75 | -11.8 | -1.4 | -19.4 | 11.2
[13] | -2.11 | 0.59 | -1.27 | -7.23 | 12.3
[14] | -11.4 | -7.39 | -2.76 | -1.3 | -0.41

Conditions | drug sensitivity score
[15] | 2.32
[16] | 0
[17] | 0.22
[18] | 0.3
[19] | 0
[20] | 0
[21] | 0.03
[22] | 0
[23] | 7.25
[24] | 0.08
[25] | 0
[26] | 0
[27] | 0.01
[28] | 0

— the supplement of paper PMC5908809
